# Data from patent publication US6939711B2, “Control of gene expression in plants by receptor mediated transactivation in the presence of a chemical ligand” (Syngenta Investment Corporation, priority 1995, dated 2005).
# Where two headings read alike, the source gives them in different places.
# How the values were obtained:
# [1] = target: T1, receptor polypeptide EcR and chimeric receptor polypeptide VP16-USP (Drosophila melanogaster, UniProt P34021); assay type: cell-based; conditions: 48 hours, maize cells, 35S/EcR + 35S/VP16-USP, (EcRE)6-Bz1/Luc
# T1 construct: expressed in transfected cells; host or cells: maize suspension cells (microprojectile bombardment)
# T1 sequence (P34021 1-878): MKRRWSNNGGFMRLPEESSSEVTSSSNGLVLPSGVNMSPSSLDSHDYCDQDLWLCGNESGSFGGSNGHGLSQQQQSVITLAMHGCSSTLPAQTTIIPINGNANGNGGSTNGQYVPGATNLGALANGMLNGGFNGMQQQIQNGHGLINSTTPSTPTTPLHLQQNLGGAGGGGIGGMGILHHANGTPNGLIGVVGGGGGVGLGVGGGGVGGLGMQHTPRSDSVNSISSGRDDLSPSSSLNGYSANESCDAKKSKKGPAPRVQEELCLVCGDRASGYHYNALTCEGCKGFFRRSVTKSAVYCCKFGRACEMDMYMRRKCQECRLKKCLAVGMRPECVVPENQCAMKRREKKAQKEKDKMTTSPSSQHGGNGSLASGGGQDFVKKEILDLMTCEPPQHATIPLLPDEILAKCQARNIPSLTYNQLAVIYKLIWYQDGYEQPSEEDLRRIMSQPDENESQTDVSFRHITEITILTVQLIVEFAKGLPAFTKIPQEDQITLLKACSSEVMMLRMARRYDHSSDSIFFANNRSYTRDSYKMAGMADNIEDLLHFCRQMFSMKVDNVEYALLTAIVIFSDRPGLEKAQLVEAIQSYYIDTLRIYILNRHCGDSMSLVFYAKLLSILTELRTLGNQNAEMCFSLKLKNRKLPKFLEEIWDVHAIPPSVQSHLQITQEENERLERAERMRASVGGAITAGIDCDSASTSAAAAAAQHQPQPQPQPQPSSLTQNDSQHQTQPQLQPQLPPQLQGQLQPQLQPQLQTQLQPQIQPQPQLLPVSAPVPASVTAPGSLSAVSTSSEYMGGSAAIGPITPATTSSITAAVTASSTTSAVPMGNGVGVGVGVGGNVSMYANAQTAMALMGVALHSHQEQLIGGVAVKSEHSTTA
# Description: (§1) Control of target polypeptide expression by various receptor polypeptides, including the chimeric receptor polypeptides of the present invention, can be shown by simultaneously transforming plant cells with the necessary gene constructions using high velocity microprojectile bombardment, followed by biochemical assay for the presence of the target polypeptide. The necessary gene constructions comprise a first receptor expression cassette which encodes a first receptor polypeptide and a second receptor expression cassette which encodes a second receptor polypeptide. In addition, a target expression cassette which-encodes a target polypeptide is also necessary (FIG. 1).
# The expression cassettes were simultaneously delivered to maize suspension cells cultured in liquid N6 medium (Chu et al. Scientia Sinica XVIII:659-668, 1975) by high velocity microprojectile bombardment using standard techniques of DNA precipation onto microprojectiles and high velocity bombardment driven by compressed helium (PDS-1000/He, BioRad, Hercules, Calif.). Transfected cells were incubated in liquid suspension in the presence of the appropriate chemical ligand for approximately 48 hours in N6 media After incubation, the transformed cells were harvested then homogenized at 0° C. Debris in the extracts was removed by centrifugation at 10,000 g at 4° C. for 5 minutes. Target polypeptide expression was detected by assaying the extract for the presence of the product encoded by the target expression cassette. One commonly used coding sequence for the target polypeptide when testing control of expression by the receptor polypeptides in the presence of a chemical ligand is firefly luciferase. The activity of firefly luciferase is determined by quantitating the chemiluminescence produced by luciferase catalyzed […] of luciferin using ATP as substrate (Promega Luciferase Kit, cat. no. E1500), using an Analytical Luminescence Model 2001 luminometer. […]
# [2] = target: T2, receptor polypeptides GAL4-EcR^330-825-C1 and USP-VP16 (UniProt P34021); assay: Luciferase reporter transactivation, 35S/GAL4-EcR^330-825-C1 + 35S/USP-VP16 with (GAL4)10-Bz1/Luc in maize cells; assay type: cell-based, Drosophila; conditions: 10 μM ligand, approximately 48 hours, 35S/GAL4-EcR^330-825-C1 + 35S/USP-VP16, (GAL4)10-Bz1/Luc
# T2 construct: expressed in transfected cells; host or cells: maize suspension cells (microprojectile bombardment)
# Description: as §1
# (§2) The expression cassettes were simultaneously delivered to maize suspension cells cultured in liquid N6 medium (Chu et al. Scientia Sinica XVIII:659-668, 1975) by high velocity microprojectile bombardment using standard techniques of DNA precipation onto microprojectiles and high velocity bombardment driven by compressed helium (PDS-1000/He, BioRad, Hercules, Calif.). […] Target polypeptide expression was detected by assaying the extract for the presence of the product encoded by the target expression cassette. […]
# [3] = target: T3, receptor polypeptides GAL4-EcR^330-878 and USP-VP16 (Drosophila melanogaster, UniProt P34021); assay: Luciferase reporter transactivation, 35S/GAL4-EcR^330-878 + 35S/USP-VP16 with (GAL4)10-Bz1/Luc in maize cells; assay type: cell-based
# T3 construct: expressed in transfected cells; host or cells: maize suspension cells (microprojectile bombardment)
# Description: as §1, §2
# [4] = target: T4, receptor polypeptides EcR and USP (Drosophila melanogaster, UniProt P34021); assay: Luciferase reporter transactivation, 35S/EcR + 35S/USP with (EcRE)5-Bz1/Luc co-transformed into maize cells; assay type: cell-based; conditions: approximately 48 hours
# T4 construct: expressed in transfected cells; host or cells: maize suspension cells (microprojectile bombardment)
# T4 sequence (P34021 1-878): T1 sequence (P34021 1-878)
# T4 sequence (P20153 1-508 partner): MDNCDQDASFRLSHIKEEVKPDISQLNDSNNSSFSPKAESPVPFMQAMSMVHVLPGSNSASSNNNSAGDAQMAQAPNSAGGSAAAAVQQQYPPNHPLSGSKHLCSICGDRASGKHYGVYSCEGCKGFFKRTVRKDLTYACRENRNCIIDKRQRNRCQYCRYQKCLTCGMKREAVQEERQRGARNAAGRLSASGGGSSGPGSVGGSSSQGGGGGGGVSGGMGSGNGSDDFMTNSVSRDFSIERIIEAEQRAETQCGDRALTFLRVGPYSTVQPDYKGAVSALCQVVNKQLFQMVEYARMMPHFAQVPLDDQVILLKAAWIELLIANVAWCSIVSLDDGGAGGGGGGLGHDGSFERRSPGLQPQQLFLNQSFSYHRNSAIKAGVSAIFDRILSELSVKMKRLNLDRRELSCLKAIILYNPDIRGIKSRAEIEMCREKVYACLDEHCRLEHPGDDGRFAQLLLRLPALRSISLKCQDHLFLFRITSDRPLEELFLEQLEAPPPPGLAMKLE
# Description: as §1, §2
# [5] = target: T5, receptor polypeptide USP and chimeric receptor polypeptide EcR^227-825-C1 (Drosophila melanogaster, UniProt P34021); assay: Luciferase reporter transactivation, 35S/USP + 35S/EcR^227-825-C1 with (EcRE)6-Bz1/Luc in maize cells; assay type: cell-based; conditions: 10 μM ligand, 48 hours, 35S/USP + 35S/EcR^227-825-C1, (EcRE)6-Bz1/Luc
# T5 construct: expressed in transfected cells; host or cells: maize suspension cells (microprojectile bombardment)
# Description: as §1, §2
# [6] = target: T6, receptor polypeptides GAL4-EcR^330-825-C1 and VP16-USP (Drosophila melanogaster, UniProt P34021); assay: Luciferase reporter transactivation, 35S/GAL4-EcR^330-825-C1 + 35S/VP16-USP with (GAL4)10-Bz1/Luc in maize cells; assay type: cell-based; conditions: 10 μM ligand, approximately 48 hours
# T6 construct: expressed in transfected cells; host or cells: maize suspension cells (microprojectile bombardment)
# Description: as §1, §2
# [7] = target: USP-VP16 chimeric receptor polypeptide (Drosophila; herpes simplex virus) (UniProt P20153); assay: cell-based or functional assay
molecule,measurement,setting,value
"CCc1ccc(C(=O)NN(C(=O)c2cc(C)cc(C)c2)C(C)(C)C)cc1 [RH5992, tebufenozide]",Luciferase Activity (light units),[1]; 10 μM ligand,"7,003 light units"
same,Luciferase Activity (light units),[2],"37,579 light units"
same,level of expression of luciferase above that observed in the absence of chemical ligand,"[3]; 10 μM RH5992, GAL4-EcR^330-878 + USP-VP16, maize cells",36 fold
same,Luciferase Activity (light units),"[3]; 10 μM ligand, approximately 48 hours, maize cells, 35S/GAL4-EcR^330-878 + 35S/USP-VP16, (GAL4)10-Bz1/Luc","130,601 light units"
same,Luciferase Activity (light units),[4]; 10 μM ligand,860 light units
same,Luciferase Activity (light units),[5],"24,631 light units"
same,Luciferase Activity (light units),[6],"11,069 light units"
"CC(C)CC[C@@H](O)[C@](C)(O)[C@H]1CC[C@@]2(O)C3=CC(=O)[C@]4(O)C[C@@H](O)[C@@H](O)C[C@]4(C)[C@H]3[C@H](O)C[C@]12C [Muristerone, muristerone]",Luciferase Activity (light units),[1]; 2 μM ligand,"12,374 light units"
same,Luciferase Activity (light units),[4]; 2 μM ligand,1351 light units
GAL4-EcR^330-878 chimeric receptor polypeptide (from UniProt P04386 1-147; P34021 330-878),"Luciferase Activity (light units), (GAL4)10-Bz1/Luc target cassette in maize cells, with 10 uM RH5992",[7],131000 light units
same,"Luciferase Activity (light units), (GAL4)10-Bz1/Luc target cassette in maize cells, without RH5992",[7],3590 light units
same,level of expression of the target polypeptide luciferase with RH5992 over that in the absence of chemical ligand,[7],36 fold
C[C@H]([C@H](O)CCC(C)(C)O)[C@H]1CC[C@@]2(O)C3=CC(=O)[C@@H]4C[C@@H](O)[C@@H](O)C[C@]4(C)[C@H]3CC[C@]12C [ecdysone],Luciferase Activity (light units),[1]; 1 μM ligand,"7,420 light units"
